In patent publication US20260216127A1, “COMBINATIONS OF A UROTHILIN AND A KETONE BODY” (Amazentis SA, priority 2022, published 2026):
Read-outs that look alike come from different tables or passages of the source.

Legend:
[1] = tested on: Interleukin 6 (IL-6) secretion in C2C12 cells; experiment: IL-6 secretion (ELISA) of differentiated C2C12 cells exposed to pro-inflammatory cytokine mix (cytomix); type: cell-based
Protocol: C2C12 Myoblasts, purchased from the American Type Culture Collection (ATCC) (ref. CRL-1772), were seeded at 8000 cells per well in a 96 well plate (Greiner, Kremsmünster, Austria) using a DMEM Glutamax 4.5 g D-glucose (Gibco, ref 31966021) supplemented with foetal bovine serum (FBS) 10% (PanBiotech, ref P190902), 1% PenStrep (Biowest) and 1% HEPES (Biowest). Cells were then differentiated for 6 days using a differentiation medium (DMEM Glutamax 4.5 g D-glucose (Gibco, ref 31966021), 2% Horse serum (Thermofisher, ref 160501229) 1% PenStrep and 1% HEPES). All the media were sterilized with a 0.45 μm filter unit (VWR). […] The medium was collected and an ELISA for Interleukin-6 were performed following the instruction provided by the supplier (Proteintech ref. KE10007). Finally, the absorbance at a wavelength of 450 nm was measured using a microplate plate reader (Fluostar Optima, BMG Labtech).

[2] = tested on: inflammation in certain cell-based models; conditions: cited from earlier work

Row | Structure (SMILES) | impact on IL-6 secretion ([1]; BHB 5 μM alone, cytomix) [%] | reduction of IL-6 secretion ([1]; higher dose of BHB alone, cytomix) [%] | concentration at which the anti-inflammatory effect of BHB was observed ([2]; PMC6402511) [µM] | concentration at which the anti-inflammatory effect of BHB was observed ([2]; PMID: 25686106) | reduction of IL-6 secretion ([1]; UA 6.25 μM alone, 24 h pre-treatment then cytomix 24 h) [%] | reduction of IL-6 secretion ([1]; UA 12.5 μM alone, 24 h pre-treatment then cytomix 24 h) [%]
1 | CC(O)CC(=O)[O-].[Na+] (racemic) [BHB, DL-β-Hydroxybutyric acid sodium salt] | −0.007 | 32 | > 250 | above 2 mM |  | 
2 | O=c1oc2cc(O)ccc2c2ccc(O)cc12 [Urolithin A] |  |  |  |  | 25 | 60
